The values below come from patent US20230322846A9, “NEUROACTIVE STEROIDS AND THEIR METHODS OF USE” (SAGE THERAPEUTICS, INC., priority 2018, published 2023).

Where only a bound is given, the exact number is not on record here.

For assay [1], the target named is [35S]-TBPS binding, rat brain cortical membranes. Briefly: Steroid inhibition of [35S]-TBPS binding. To be noted: 3 nM [35S]-TBPS, in the presence of 5 mM GABA. The gist of the method: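 In the presence of […], compounds (DMSO 0.5% final) competed with 3 nM [35S]-TBPS for Sprague-Dawley rat cortical membranes, pH 7.4 phosphate buffer, 90 min, room temperature. Filtration and scintillation counting; specific binding defined by […]; IC50 and maximal inhibition fitted per experiment, averaged as mean ± SEM.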

The target in assay [2] is human GABAA receptors composed of the α4β3δ subunits (Homo sapiens (Human), UniProt O14764+P28472+P48169). Briefly: α4β3δ SyncroPatch automated patch clamp assay. Type of assay: cell-based. The following applies: for EC50: HEK cells, potentiation of submaximal GABA current, clamped at −120 mV; for α4β3δ EMAX: peak current after GABA+compound divided by peak current after GABA alone. Here is the method:
(§1) The SyncroPatch 384PE (Nanion, Germany) automated patch clamp platform was used to obtain recordings from human embryonic kidney cells stably expressing human GABAA receptors composed of the α1β2γ2 and α4β3δ subunits. Cells were bathed in an extracellular solution containing: 140 mM NaCl, 4 mM KCl, 2 mM CaCl2), 1 mM MgCl2, 10 mM HEPES, 5 mM glucose and 0.1% DMSO. Solution was maintained at pH 7.4 with NaOH and 300 mOsm/L. Chips with multi-hole (4×) medium resistance (2-3M) are used for the recombinant cell line experiments. Once harvested, cells are stored in extracellular solution set to 10° C. in the cell hotel with a minimum shaking speed of 200 rpm before addition to the chip at the beginning of each experiment. Whole cell patch clamp recordings were made using an intracellular solution containing: 90 mM KCl, 50 mM KF, 1.5 mM MgCl2, 11.1 mM EGTA and 10 mM HEPES, 2 mM NaATP, maintained at pH 7.2 with KOH. Currents are leak corrected (using P/2 leak correction protocol) and sampled at 5 kHz. Cells were clamped at −120 mV. After establishing a stable baseline, a submaximal concentration of GABA (3-5 μM for cells expressing α1β2γ2 and 10 μM for cells expressing […]) was applied at a rate of 10 μl/second, immediately followed by application of GABA+compound (10 μl/second) at a single concentration of compound per cell. Compounds were tested at six concentrations (0.029, 0.12, 0.47, 1.88, 7.5, and 30 μM) in n=8-12 cells per concentration. Compound effect was determined by dividing peak current amplitude after GABA+compound by peak current amplitude after GABA alone. EC50 and Emax values were determined from average values for each concentration.
For orientation: In patch-clamp work, channel activity is measured electrically.

In assay [3] the target is human GABAA receptors composed of the α1β2γ2 subunits (Homo sapiens (Human), UniProt P14867+P18507+P47870). Briefly: α1β2γ2 SyncroPatch automated patch clamp assay. Type of assay: cell-based. To be noted: for EC50: HEK cells, potentiation of submaximal GABA current, clamped at −120 mV; for α1β2γ2 EMAX: peak current after GABA+compound divided by peak current after GABA alone. Here is the method:
as §1

human GABAA receptors composed of the α4β3δ subunits, sequence (P48169 36-554 limits assumed): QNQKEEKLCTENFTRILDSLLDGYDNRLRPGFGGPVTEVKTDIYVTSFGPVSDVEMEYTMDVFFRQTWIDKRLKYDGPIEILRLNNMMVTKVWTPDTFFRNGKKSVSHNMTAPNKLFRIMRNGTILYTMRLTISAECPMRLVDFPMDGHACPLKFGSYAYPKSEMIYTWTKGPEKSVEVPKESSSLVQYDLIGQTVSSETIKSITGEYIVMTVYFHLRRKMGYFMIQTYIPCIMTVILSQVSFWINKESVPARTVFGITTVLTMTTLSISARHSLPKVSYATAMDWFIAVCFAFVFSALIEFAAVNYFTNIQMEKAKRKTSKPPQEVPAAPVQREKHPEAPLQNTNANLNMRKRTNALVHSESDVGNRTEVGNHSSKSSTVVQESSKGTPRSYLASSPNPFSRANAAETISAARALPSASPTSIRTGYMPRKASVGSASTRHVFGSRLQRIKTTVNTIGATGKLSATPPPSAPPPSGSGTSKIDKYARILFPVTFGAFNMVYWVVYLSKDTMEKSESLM
human GABAA receptors composed of the α4β3δ subunits, sequence (P28472 26-473 limits assumed): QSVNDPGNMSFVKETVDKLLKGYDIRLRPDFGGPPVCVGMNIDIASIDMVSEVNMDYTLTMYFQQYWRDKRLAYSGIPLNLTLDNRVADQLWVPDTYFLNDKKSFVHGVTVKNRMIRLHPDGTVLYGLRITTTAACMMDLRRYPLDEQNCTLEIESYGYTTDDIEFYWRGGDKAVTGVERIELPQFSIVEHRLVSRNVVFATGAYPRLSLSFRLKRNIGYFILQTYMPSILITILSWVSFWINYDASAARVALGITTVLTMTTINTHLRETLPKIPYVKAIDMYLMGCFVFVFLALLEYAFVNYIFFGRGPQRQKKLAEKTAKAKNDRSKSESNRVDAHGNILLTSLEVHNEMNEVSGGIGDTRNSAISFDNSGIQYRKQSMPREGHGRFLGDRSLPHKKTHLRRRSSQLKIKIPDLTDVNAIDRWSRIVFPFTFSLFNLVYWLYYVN
human GABAA receptors composed of the α4β3δ subunits, sequence (O14764 17-452 limits assumed): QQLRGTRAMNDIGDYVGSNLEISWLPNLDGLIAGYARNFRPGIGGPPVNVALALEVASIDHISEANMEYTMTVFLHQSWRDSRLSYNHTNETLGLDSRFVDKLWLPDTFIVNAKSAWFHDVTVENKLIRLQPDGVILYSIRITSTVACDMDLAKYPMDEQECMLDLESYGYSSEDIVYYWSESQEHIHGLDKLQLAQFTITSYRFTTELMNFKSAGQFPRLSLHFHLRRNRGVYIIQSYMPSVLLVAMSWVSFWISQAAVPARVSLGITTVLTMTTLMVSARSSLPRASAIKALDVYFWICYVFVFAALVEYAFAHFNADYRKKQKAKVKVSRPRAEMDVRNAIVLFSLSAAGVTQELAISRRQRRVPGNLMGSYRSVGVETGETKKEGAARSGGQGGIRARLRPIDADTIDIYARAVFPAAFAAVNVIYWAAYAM
human GABAA receptors composed of the α1β2γ2 subunits, sequence (P14867 28-456 limits assumed): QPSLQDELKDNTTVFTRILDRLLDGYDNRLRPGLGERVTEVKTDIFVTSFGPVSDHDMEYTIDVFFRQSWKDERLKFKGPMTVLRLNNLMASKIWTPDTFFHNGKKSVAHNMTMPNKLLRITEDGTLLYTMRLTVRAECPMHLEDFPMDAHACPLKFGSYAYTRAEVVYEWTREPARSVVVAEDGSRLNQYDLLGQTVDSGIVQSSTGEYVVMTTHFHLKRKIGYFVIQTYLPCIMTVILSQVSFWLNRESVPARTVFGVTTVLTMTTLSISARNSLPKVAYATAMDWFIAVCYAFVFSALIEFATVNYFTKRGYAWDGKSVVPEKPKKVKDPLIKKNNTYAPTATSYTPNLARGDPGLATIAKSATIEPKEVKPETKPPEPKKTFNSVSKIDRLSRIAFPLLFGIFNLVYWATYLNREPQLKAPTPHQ
human GABAA receptors composed of the α1β2γ2 subunits, sequence (P47870 25-512 limits assumed): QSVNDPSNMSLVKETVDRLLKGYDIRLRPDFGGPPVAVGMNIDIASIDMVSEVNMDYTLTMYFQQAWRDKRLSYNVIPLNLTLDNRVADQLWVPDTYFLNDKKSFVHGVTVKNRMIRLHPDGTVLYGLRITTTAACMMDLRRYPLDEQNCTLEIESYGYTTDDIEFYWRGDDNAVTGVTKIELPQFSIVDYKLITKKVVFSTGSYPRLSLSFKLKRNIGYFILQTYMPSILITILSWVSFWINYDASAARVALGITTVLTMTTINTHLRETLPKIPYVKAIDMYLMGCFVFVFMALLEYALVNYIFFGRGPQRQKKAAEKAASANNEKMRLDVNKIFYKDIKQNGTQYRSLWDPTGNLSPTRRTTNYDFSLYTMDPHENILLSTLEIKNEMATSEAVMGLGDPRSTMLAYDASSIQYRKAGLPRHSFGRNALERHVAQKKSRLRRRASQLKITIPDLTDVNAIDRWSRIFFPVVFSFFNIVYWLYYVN
human GABAA receptors composed of the α1β2γ2 subunits, sequence (P18507 40-475 limits assumed): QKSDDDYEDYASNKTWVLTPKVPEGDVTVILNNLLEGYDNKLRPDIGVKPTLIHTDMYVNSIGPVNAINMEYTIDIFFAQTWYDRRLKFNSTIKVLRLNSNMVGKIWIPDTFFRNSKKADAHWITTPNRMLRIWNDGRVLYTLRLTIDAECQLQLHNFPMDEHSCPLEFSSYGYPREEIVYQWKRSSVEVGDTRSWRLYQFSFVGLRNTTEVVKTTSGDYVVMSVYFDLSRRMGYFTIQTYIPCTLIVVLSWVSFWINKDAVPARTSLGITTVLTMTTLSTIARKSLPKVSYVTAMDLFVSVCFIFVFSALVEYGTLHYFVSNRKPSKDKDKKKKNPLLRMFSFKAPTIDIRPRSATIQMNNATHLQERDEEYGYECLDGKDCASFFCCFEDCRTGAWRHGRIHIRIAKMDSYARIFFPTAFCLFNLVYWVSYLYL

Consider `CCC[C@@]1(O)CC[C@H]2[C@H](CC[C@@H]3[C@@H]2CC[C@]2(C)[C@@H]([C@@H](C)Cn4cc(C#N)cn4)CC[C@@H]32)C1` [Example 65, 1-((R)-2-((3R,5R,8R,9R,10S,13S,14S,17R)-3-hydroxy-13-methyl-3-propylhexadecahydro-1H-cyclopenta[a]phenanthren-17-yl)propyl)-1H-pyrazole-4-carbonitrile], for which the half-maximal inhibitory concentration (IC50) (commonly the concentration that gives 50% inhibition) in assay [1] was below 0.1 µM. Further, in assay [2], the EC50 (in general, the concentration that produces a half-maximal response) is below 0.2 µM and the “α4β3δ EMAX” value is on record as “B (B indicates an Emax response 30 to <45)”. In assay [3], the EC50 was at least 1 µM and the “α1β2γ2 EMAX” value is “A (A indicates an Emax response <8)”.

Regarding `CCC[C@@]1(O)CC[C@@]2(COC)[C@H](CC[C@H]3[C@@H]4CC[C@H]([C@H](C)Cn5nnc(C)n5)[C@@]4(C)CC[C@@H]32)C1` [Example 320, (3R,5R,8S,9S,10R,13S,14S,17R)-10-(methoxymethyl)-13-methyl-17-((S)-1-(5-methyl-2H-tetrazol-2-yl)propan-2-yl)-3-propylhexadecahydro-1H-cyclopenta[a]phenanthren-3-ol], in assay [1], the IC50 is below 0.1 µM. Also, in assay [2], the EC50 fell in the range of 0.2 to 1 µM and the “α4β3δ EMAX” value is reported as “C (C indicates an Emax response ≥45)”. Also, in assay [3], the EC50 was in the range of 0.2 to 1 µM and the “α1β2γ2 EMAX” value was “B (B indicates an Emax response 8 to <10)”.

On to `CCC[C@@]1(O)CC[C@H]2[C@H](CC[C@@H]3[C@@H]2CC[C@]2(C)[C@@H]([C@H](C)Cn4nnnc4C)CC[C@@H]32)C1` [Example 323, (3R,5R,8R,9R,10S,13S,14S,17R)-13-methyl-17-(1-(5-methyl-1H-tetrazol-1-yl)propan-2-yl)-3-propylhexadecahydro-1H-cyclopenta[a]phenanthren-3-ol], for which, in assay [1], the IC50 is below 0.1 µM. Besides, in assay [2], the EC50 was in the range of 0.2 to 1 µM and the “α4β3δ EMAX” value is “B (B indicates an Emax response 30 to <45)”. In assay [3], the half-maximal effective concentration (EC50) is below 0.2 µM and the “α1β2γ2 EMAX” value was “C (C indicates an Emax response ≥10)”.

Turning to `C[C@H](Cc1nccc(C#N)n1)[C@H]1CC[C@H]2[C@@H]3CC[C@@H]4C[C@](C)(O)CC[C@@H]4[C@H]3CC[C@]12C` [Example 436], the IC50 in assay [1] was 0.1 to 1 µM. For the same molecule, in assay [2], the EC50 is at least 1 µM and the “α4β3δ EMAX” value is given as “B (B indicates an Emax response 30 to <45)”. Besides, in assay [3], the 50% effective concentration (EC50) was 0.2 to 1 µM and the “α1β2γ2 EMAX” value is recorded as “A (A indicates an Emax response <8)”.

Take `COC[C@@]1(O)CC[C@H]2[C@H](CC[C@@H]3[C@@H]2CC[C@]2(C)[C@@H]([C@@H](C)Cc4ccc(C(F)(F)F)nc4)CC[C@@H]32)C1` [Example 420]: the EC50 in assay [2] and in assay [3] was below 0.2 µM each time.

In the case of `CC[C@@]1(O)CC[C@H]2[C@H](CC[C@@H]3[C@@H]2CC[C@]2(C)[C@@H]([C@H](C)Cn4cc(C#N)cn4)CC[C@@H]32)C1` [Example 276, 1-((S)-2-((3R,5R,8R,9R,10S,13S,14S,17R)-3-ethyl-3-hydroxy-13-methylhexadecahydro-1H-cyclopenta[a]phenanthren-17-yl)propyl)-1H-pyrazole-4-carbonitrile], in assay [1], the IC50 was below 0.1 µM. Moreover, in assay [2], the concentration giving a half-maximal response (EC50) was below 0.2 µM and the “α4β3δ EMAX” value is recorded as “A (A indicates an Emax response <30)”. In assay [3], the EC50 is 0.2 to 1 µM and the “α1β2γ2 EMAX” value is listed as “B (B indicates an Emax response 8 to <10)”.

For `CC[C@@]1(O)CC[C@H]2[C@H](CC[C@@H]3[C@@H]2CC[C@]2(C)[C@@H]([C@@H](C)Cn4ccc(C#N)n4)CC[C@@H]32)C1` [Example 272, 1-((R)-2-((3R,5R,8R,9R,10S,13S,14S,17R)-3-ethyl-3-hydroxy-13-methylhexadecahydro-1H-cyclopenta[a]phenanthren-17-yl)propyl)-1H-pyrazole-3-carbonitrile], the IC50 in assay [1] was below 0.1 µM. In addition, in assay [2], the EC50 was below 0.2 µM and the “α4β3δ EMAX” value is reported as “A (A indicates an Emax response <30)”. Further, in assay [3], the EC50 is below 0.2 µM and the “α1β2γ2 EMAX” value is “C (C indicates an Emax response ≥10)”.

On to `Cc1cnc(C[C@@H](C)[C@H]2CC[C@H]3[C@@H]4CC[C@@H]5C[C@](C)(O)CC[C@@H]5[C@H]4CC[C@]23C)nc1` [Example 438], for which the IC50 in assay [1] lay in the range of 0.1 to 1 µM. Further, in assay [2], the EC50 was at least 1 µM and the “α4β3δ EMAX” value is on record as “B (B indicates an Emax response 30 to <45)”. In assay [3], the EC50 is 0.2 to 1 µM and the “α1β2γ2 EMAX” value is reported as “A (A indicates an Emax response <8)”.

As to `COC[C@@]1(O)CC[C@H]2[C@H](CC[C@@H]3[C@@H]2CC[C@]2(C)[C@@H]([C@H](C)Cc4ccc(C#N)nc4)CC[C@@H]32)C1` [Example 405, 5-((R)-2-((3R,5R,8R,9R,10S,13R,14S,17R)-3-hydroxy-3-(methoxymethyl)-13-methylhexadecahydro-1H-cyclopenta[a]phenanthren-17-yl)propyl)picolinonitrile], the IC50 in assay [1] is below 0.1 µM. Also, in assay [2], the EC50 was below 0.2 µM and the “α4β3δ EMAX” value is “B (B indicates an Emax response 30 to <45)”. Also, in assay [3], the concentration for a half-maximal effect (EC50) is at least 1 µM and the “α1β2γ2 EMAX” value is “C (C indicates an Emax response ≥10)”.

With `CCC[C@@]1(O)CC[C@H]2[C@H](CC[C@@H]3[C@@H]2CC[C@]2(C)[C@@H]([C@@H](C)Cn4nnc(C)n4)[C@@H](O)C[C@@H]32)C1` [Example 365, (3R,5R,8R,9R,10S,13S,14S,16S,17R)-13-methyl-17-((R)-1-(5-methyl-2H-tetrazol-2-yl)propan-2-yl)-3-propylhexadecahydro-1H-cyclopenta[a]phenanthrene-3,16-diol], the EC50 was 0.2 to 1 µM in assay [2] and at least 1 µM in assay [3].

On to `C[C@H]([C@H]1CC[C@H]2[C@@H]3CC[C@@H]4C[C@](C)(O)CC[C@@H]4[C@H]3CC[C@]12C)N1Cc2cc(C#N)ccc2C1=O` [Example 40, 2-((R)-1-((3R,5R,8R,9R,10S,13S,14S,17S)-3-hydroxy-3,13-dimethylhexadecahydro-1H-cyclopenta[a]phenanthren-17-yl)ethyl)-1-oxoisoindoline-5-carbonitrile], for which the IC50 in assay [1] is below 0.1 µM.

`CCOC[C@@]1(O)CC[C@H]2[C@H](CC[C@@H]3[C@@H]2CC[C@]2(C)[C@@H]([C@@H](C)N4CCc5cc(C#N)ccc5C4=O)CC[C@@H]32)C1` [Example 46, 2-((R)-1-((3R,5R,8R,9R,10S,13S,14S,17S)-3-(ethoxymethyl)-3-hydroxy-13-methylhexadecahydro-1H-cyclopenta[a]phenanthren-17-yl)ethyl)-1-oxo-1,2,3,4-tetrahydroisoquinoline-6-carbonitrile]: the IC50 in assay [1] was below 0.1 µM.

As for `CCC[C@@]1(O)CC[C@H]2[C@H](CC[C@@H]3[C@@H]2CC[C@]2(C)[C@@H]([C@H](C)Cc4cnc(C)cn4)CC[C@@H]32)C1` [Example 418], the IC50 in assay [1] lay within 1 to 10 µM.

Take `CC[C@@]1(O)CC[C@H]2[C@@H](CC[C@@H]3[C@@H]2CC[C@]2(C)[C@@H]([C@@H](C)Cn4nnc(C)n4)CC[C@@H]32)C1` [Example 333, (3R,5S,8R,9R,10S,13S,14S,17R)-3-ethyl-13-methyl-17-((R)-1-(5-methyl-2H-tetrazol-2-yl)propan-2-yl)hexadecahydro-1H-cyclopenta[a]phenanthren-3-ol]: in assay [1], the half-maximal inhibitory concentration (IC50) was in the range of 0.1 to 1 µM.
